The values that follow are results of earlier work, collected in patent publication US5017369A, “Film-forming teat sealer for prevention of mastitis and use thereof” (priority 1989, dated 1991).

The conditions of the data set: gluconate salt dissolved in water.

With `N=C(NCCCCCCNC(=N)NC(=N)Nc1ccc(Cl)cc1)NC(=N)Nc1ccc(Cl)cc1` [chlorhexidine gluconate, bis(p-chlorophenyl-diguanido)hexane], the “pH of water solutions” value is reported as roughly 7.0.
